# Read-outs that look alike come from different tables or passages of the source.
# How the values were obtained:
# HUVECs [1] = assay: In vitro cytotoxicity (MTT) assay, HUVECs; type: cell-based, human; conditions: 1 μg/mL to 100 μg/mL, 24 hr
# Protocol: For cell cytotoxicity assay, the cells were then seeded into 96-well flat-bottomed tissue-culture plates at 1×10^4 cells/well and incubated for 24 hr in humidified atmosphere of 5% (vol./vol.) CO2 at 37° C. in the presence of each compound. The multivalent compound (monomer, dimer, and trimer) sample solutions were diluted with culture medium (1% FBS added) to obtain concentrations in the range of 0.1-100 μg/mL for each compound. The cytotoxic effects of monomer, dimer and trimer compounds were evaluated by adding 100 μL of each sample in 100 μL culture medium to each well. After 24-hrs' incubation, cell viability was evaluated by mitochondrial conversion of 3-(4,5-dimethylthiazol-2-yl)-2,5-diphenyl tetrazolium bromide (MTT assay) (Allison et al., 1985).
# HUVECs [2] = assay: Anti-angiogenic in vitro assay: endothelial tube formation on Matrigel; type: cell-based, human; conditions: 10 μg/mL, 6 hr
# Protocol: The impact of IA derivatives on capillary-like tube formation by HUVECs was investigated. In vitro endothelial tube formation was performed as described in the literature (Park et al., 2007). Growth factor reduced Matrigel® (100 μL, BD Bioscience, San Jose, Calif., USA) was added to each well of a 96-well plate and allowed to polymerize for 30 min at 37° C. HUVECs were suspended in medium at the density of 4×10^5 cells per milliliter, and 100 μL of the cell suspension was added to each Matrigel-coated well in the presence of IA monomer, dimer and trimer. Cells were incubated at 37° C. for 6 hr, and then photographed at 20× magnification using a Micromaster® phase contrast microscope (Fisher Scientific, Pittsburgh, Pa., USA). The branch points were counted and averaged.
# purified human αvβ3 = target: T1, purified human αvβ3 (Homo sapiens, UniProt P05106+P06756); assay: ELISA: competitive inhibition of biotinylated vitronectin binding to immobilized purified integrin αvβ3; conditions: for in vitro measured IC50 increase from IA-monomer: compared to IA-monomer
# T1 construct: purchased Chemicon International, Temecula, Calif., USA
# Protocol: In vitro Binding Assay. […] Purified integrin αvβ3 protein (Chemicon International, Temecula, Calif., USA) was applied to 96-well polystyrene microtiter plates at 0.1 μg/well. After overnight incubation at 4° C., the plates were washed, and then blocked with milk solution (KPL, Inc. Gaithersburg, Md., USA) at room temperature for 2 hr. The blocking buffer was removed, and the plates were inoculated in quadruplicate with bivalent IAs with a typical starting concentration of 125 nM. Serial dilutions were prepared in the 96-well plates using multichannel pipettes. Biotinylated vitronectin solution (0.1 μg/well) was added to each well as a standard competitor. The plates were incubated at room temperature for 3 h, washed, and the bound vitronectin was detected using NeutrAvidin-HRP conjugate at 0.01 μg/well (Pierce, Rockford, Ill., USA) and LumiGlo® chemiluminescent substrate system (KPL, Inc.). The luminescence was read using a FLUOstar™ OPTIMA Microplate Reader (Durham, N.C., USA). […] (Peptides International, Inc., Louisville, Ky., USA) was also tested using the same method as described above.
# Briefly, purified integrin αvβ3 protein (Chemicon International, Temecula, Calif., USA) was applied to 96-well polystyrene microtiter plates for overnight incubation at 4° C. The plates were washed and then blocked with milk solution (KPL, Inc., Gaithersburg, Md., USA) and the plates were inoculated in quadruplicate with multivalent IAs at different concentrations. Biotinylated vitronectin solution was added to each well as a standard competitor. The plates were incubated at room temperature, washed, and the bound vitronectin detected using NeutrAvidin-HRP® conjugate (Pierce, Rockford, Ill., USA) and LumiGlo® chemiluminescent substrate system (KPL, Inc., Gaithersburg, Md., USA). The luminescence was read using a FLUOstar® OPTIMA Microplate Reader (Durham, N.C., USA).
# In vitro Binding Affinity Assay. Purified integrin αvβ3 protein (Chemicon International, Temecula, Calif., USA) was applied to 96-well polystyrene microtiter plates at 1 μg/well. After overnight incubation at 4° C., the plates were washed and then blocked with milk solution (KPL, Inc., Gaithersburg, Md., USA) at room temperature for 2 hr. The blocking buffer was removed, and the plates were inoculated in quadruplicate with bivalent IAs with a typical starting concentration of 125 nM. Serial dilutions were prepared in the 96-well plates using multichannel pipettes. Biotinylated vitronectin solution (0.1 μg/well) was added to each well as a standard competitor.
# The plates were incubated at room temperature for 3 hr, washed, and the bound vitronectin was detected using NeutrAvidin-HRP conjugate at 0.01 μg/well (Pierce, Rockford, Ill., USA) and LumiGlo® chemiluminescent substrate system (KPL, Inc.). The luminescence was read using a FLUOstar OPTIMA Microplate Reader (Durham, N.C., USA). […] It measured competitive binding of the integrin antagonist and biotinylated human vitronectin for the immobilized receptor αvβ3.
# [3] = monomer/dimer/trimer study, FIG. 28, Table 5, read-out: IC50 (nM) ELISA
# [4] = Example 1 bivalent IA study, FIG. 4, read-out: IC50 of vitronectin binding to αvβ3 (ELISA)
Structure (SMILES),cytotoxicity on HUVEC cells (HUVECs [1]),number of tube branches (control group 100%) (HUVECs [2]) [%],increase in IC50 from the dimer to trimer (purified human αvβ3; compared to IA dimer) [fold],in vitro measured IC50 increase from IA-monomer (purified human αvβ3) [fold],IC50 (purified human αvβ3; [3]) [nM],IC50 (purified human αvβ3; [4]) [nM],"IC50 (purified human αvβ3; Example 2, PEG-linked ligands, averages of at least three determinations, read-out: In vitro EL1SA IC50) [nM]",integrin αvβ3 binding affinity compared to monomer (purified human αvβ3),improvement in receptor affinity (IC50) over c-[RGDfV] (purified human αvβ3; compared to c-[RGDfV]) [fold]
O=C(NCCS(=O)(=O)N[C@@H](CNC(=O)c1ccc(OCCNC2=NCCCN2)cc1)C(=O)O)OCCN(CCOC(=O)NCCS(=O)(=O)N[C@@H](CNC(=O)c1ccc(OCCNC2=NCCCN2)cc1)C(=O)O)CCOC(=O)NCCS(=O)(=O)N[C@@H](CNC(=O)c1ccc(OCCNC2=NCCCN2)cc1)C(=O)O [IA trimer],increased cytotoxicity over the IA-monomer and dimer,35.6±1.0,2,56,0.22,,,,
"NCCS(=O)(=O)N[C@@H](CNC(=O)c1ccc(OCCNC2=NCCCN2)cc1)C(=O)O [IA, 4-[2-(3,4,5,6-tetrahydropyrimidine-2-ylamino)ethyloxy]benzoyl-2-(S)-aminoethylsulfonyl-amino-β-alanine]",,86.6±3.4,,,11,22.3 ± 4.51,22.3,,
NC(CCCCCC(=O)NCCS(=O)(=O)N[C@@H](CNC(=O)c1ccc(OCCNC2=NCCCN2)cc1)C(=O)O)C(=O)NCCS(=O)(=O)N[C@@H](CNC(=O)c1ccc(OCCNC2=NCCCN2)cc1)C(=O)O (stereo partly drawn) [bivalent IA],,68.3±2.6,,28,0.44,0.4 ± 0.11,,significantly higher integrin avb3-binding affinity and specificity than IA monomer,10

# — patent US9833520B2, “Labeled, non-peptidic, multivalent integrin antagonist compounds; methods for synthesis and uses thereof” (The Methodist Hospital Research Institute, priority 2011, dated 2017)
